In patent US20060040871A1, “Bacterial transforming agent” (priority 2003, published 2006):
Where two headings read alike, the source gives them in different places.

Experiments:
[1] = system: MRSA; assay: Antimicrobial plus BTA against recent clinical MRSA isolates (Table 7); assay type: cell-based, Staphylococcus aureus
Source text: The four clinical isolates were isolated from patients during the first three months of 2003. […] An intermediate MRSA has been included, as methicillin-resistance has been achieved by means other than production of PBP2a.

[2] = system: VRE; assay: Antimicrobial plus BTA against VRE (Table 7); assay type: cell-based, enterococci
[3] = system: MRSA; assay: MIC of ceftazidime or cefuroxime for MRSA grown with or without GBE (Table 2); assay type: cell-based, Staphylococcus aureus; settings: Control; for MIC: Staphylococcus aureus
Source text: Importantly, the usefulness of the agents of the present invention is not limited to increasing bacterial sensitivity to methicillin.

[4] = system: MRSA; assay: MIC of methicillin for MRSA isolates grown with glycine or GBE (Table 1); assay type: cell-based, Staphylococcus aureus; settings: 0.0 (Control); for MIC: Staphylococcus aureus
[5] = system: S. aureus; assay: MIC of methicillin for already sensitive S. aureus with GBE, with or without 1% human plasma (Table 6); assay type: cell-based, Staphylococcus aureus; settings: Staphylococcus aureus, no plasma (Control 1)
Source text: As previously mentioned, a common cause of auto-infection is due to S. aureus carried on the anterior nares. […] The transforming agents of the present invention may also be used in combination with a suitable antimicrobial to eliminate nasal carriage of MSSA prior to cardiac surgery or other invasive procedures carrying a high risk of auto-infection.

[6] = system: MRSA with intermediate resistance to glycopeptides; assay: MIC of vancomycin or teicoplanin for MRSA with intermediate resistance to glycopeptides grown with GBE or NAGly (Table 4); assay type: cell-based, Staphylococcus aureus; settings: NAGly 0.001M; for MIC: Staphylococcus aureus, read-out: MIC of teicoplanin

CC1=C(C(=O)O)N2C(=O)[C@@H](NC(=O)[C@H](N)c3ccccc3)[C@H]2SC1 [Cephalexin, cephalexin]
32 µg/mL: Cephalexin (antimicrobial plus BTA; quantity not named, MIC implied) ([1]; I-MRSA, cephalexin alone)

C#CCC(N)C(=O)O.C#CCC(N)C(=O)O (stereo not shown) [PPG, Propargylglycine (2-Amino-4-pentynoic acid)]
12 µg/mL: Cephalexin (antimicrobial plus BTA; quantity not named, MIC implied) ([1]; EMRSA-16, +BTA 0.01%)
0.25 µg/mL: Vancomycin (antimicrobial plus BTA; quantity not named, MIC implied) ([1]; EMRSA-16, +BTA 0.01%) | Vancomycin (antimicrobial plus BTA; quantity not named, MIC implied) ([1]; EMRSA-17, +BTA 0.01%)
4 µg/mL: Oxacillin (antimicrobial plus BTA; quantity not named, MIC implied) ([1]; EMRSA-16, +BTA 0.001%)
0.125 µg/mL: Cephalexin (antimicrobial plus BTA; quantity not named, MIC implied) ([1]; I-MRSA, +BTA 0.01%) | Oxacillin (antimicrobial plus BTA; quantity not named, MIC implied) ([1]; I-MRSA, +BTA 0.01%)
64 µg/mL: Vancomycin (antimicrobial plus BTA; quantity not named, MIC implied) ([2]; +BTA 0.01%)
1.5 µg/mL: Oxacillin (antimicrobial plus BTA; quantity not named, MIC implied) ([1]; EMRSA-16, +BTA 0.01%)
8 µg/mL: Oxacillin (antimicrobial plus BTA; quantity not named, MIC implied) ([1]; EMRSA-17, +BTA 0.001%)
6 µg/mL: Cephalexin (antimicrobial plus BTA; quantity not named, MIC implied) ([1]; EMRSA-17, +BTA 0.01%)
< 0.25 µg/mL: Vancomycin (antimicrobial plus BTA; quantity not named, MIC implied) ([1]; I-MRSA, +BTA 0.01%)
2 µg/mL: Oxacillin (antimicrobial plus BTA; quantity not named, MIC implied) ([1]; EMRSA-17, +BTA 0.01%) | Oxacillin (antimicrobial plus BTA; quantity not named, MIC implied) ([1]; I-MRSA, +BTA 0.001%)

CO/N=C(\C(=O)N[C@@H]1C(=O)N2C(C(=O)O)=C(COC(N)=O)CS[C@H]12)c1ccco1 [Cefuroxime, cefuroxime]
> 256 µg/mL: MIC ([3]; MRSA / NCTC 12493, NCTC 12493, read-out: MIC of cefuroxime) | MIC ([3]; MRSA, DS09 (EMRSA-1), read-out: MIC of cefuroxime)
>256 µg/mL: MIC of cefuroxime ([3]; CD40 (EMRSA-1)) | MIC of cefuroxime ([3]; E15-97 (EMRSA-15)) | MIC of cefuroxime ([3]; E16-96 (EMRSA-16)) | MIC of cefuroxime ([3]; JF1-32 (EMRSA-1)) | MIC of cefuroxime ([3]; MC01 (EMRSA-1)) | MIC of cefuroxime ([3]; PS3-32 (EMRSA-1)) | MIC of cefuroxime ([3]; SN31 (EMRSA-1)) | MIC of cefuroxime ([3]; ST11 (EMRSA-1)) | MIC of cefuroxime ([3]; SW2-32 (EMRSA-1))

Cc1onc(-c2ccccc2)c1C(=O)N[C@@H]1C(=O)N2[C@@H]1SC(C)(C)[C@@H]2C(=O)O [Oxacillin, oxacillin]
256 µg/mL: Oxacillin (antimicrobial plus BTA; quantity not named, MIC implied) ([1]; EMRSA-16, oxacillin alone) | Oxacillin (antimicrobial plus BTA; quantity not named, MIC implied) ([1]; EMRSA-17, oxacillin alone)
32 µg/mL: Oxacillin (antimicrobial plus BTA; quantity not named, MIC implied) ([1]; I-MRSA, oxacillin alone)

COc1cccc(OC)c1C(=O)N[C@@H]1C(=O)N2[C@@H]1SC(C)(C)[C@@H]2C(=O)O [methicillin]
>256 µg/mL: MIC of methicillin ([4]; CD40 (EMRSA-1)) | MIC of methicillin ([4]; DS09 (EMRSA-1)) | MIC of methicillin ([4]; E15-97 (EMRSA-15)) | MIC of methicillin ([4]; E16-96 (EMRSA-16)) | MIC of methicillin ([4]; JF1-32 (EMRSA-1)) | MIC of methicillin ([4]; L265) | MIC of methicillin ([4]; L267) | MIC of methicillin ([4]; L268) | MIC of methicillin ([4]; L269) | MIC of methicillin ([4]; L270) | MIC of methicillin ([4]; L271) | MIC of methicillin ([4]; L272) | MIC of methicillin ([4]; L273) | MIC of methicillin ([4]; L274) | MIC of methicillin ([4]; L275) | MIC of methicillin ([4]; L276) | MIC of methicillin ([4]; L277) | MIC of methicillin ([4]; L278) | MIC of methicillin ([4]; L279) | MIC of methicillin ([4]; L280) | MIC of methicillin ([4]; L281) | MIC of methicillin ([4]; L282) | MIC of methicillin ([4]; L283) | MIC of methicillin ([4]; L284) | MIC of methicillin ([4]; L285) | MIC of methicillin ([4]; L286) | MIC of methicillin ([4]; L287) | MIC of methicillin ([4]; L288) | MIC of methicillin ([4]; L289) | MIC of methicillin ([4]; L290) | MIC of methicillin ([4]; L291) | MIC of methicillin ([4]; L292) | MIC of methicillin ([4]; L293) | MIC of methicillin ([4]; L294) | MIC of methicillin ([4]; MC01 (EMRSA-1)) | MIC of methicillin ([4]; PS3-32 (EMRSA-1)) | MIC of methicillin ([4]; SN31 (EMRSA-1)) | MIC of methicillin ([4]; ST11 (EMRSA-1)) | MIC of methicillin ([4]; SW2-32 (EMRSA-1))
0.5 µg/mL: MIC ([5]; LHS79) | MIC ([5]; LHS82) | MIC ([5]; LHS87) | MIC ([5]; LHS92)
0.25 µg/mL: MIC ([5]; LHS78) | MIC ([5]; LHS80) | MIC ([5]; LHS83) | MIC ([5]; LHS84) | MIC ([5]; LHS85) | MIC ([5]; LHS86) | MIC ([5]; LHS88) | MIC ([5]; LHS89) | MIC ([5]; LHS93) | MIC ([5]; LHS94)
< 0.25 µg/mL: MIC ([5]; LHS77) | MIC ([5]; LHS81) | MIC ([5]; LHS90) | MIC ([5]; LHS91)
> 256 µg/mL: MIC ([4]; MRSA / NCTC 12493, NCTC 12493) | MIC ([4]; MRSA, L266) | MIC ([5]; 5518 (EMRSA-1))

O=C(O)CNC(=O)c1ccccc1 [HA, Hippuric acid (N-Benzoylglycine)]
< 0.25 µg/mL: Vancomycin (antimicrobial plus BTA; quantity not named, MIC implied) ([1]; I-MRSA, +BTA 0.1%)
4 µg/mL: Oxacillin (antimicrobial plus BTA; quantity not named, MIC implied) ([1]; EMRSA-16, +BTA 0.1%) | Oxacillin (antimicrobial plus BTA; quantity not named, MIC implied) ([1]; EMRSA-17, +BTA 0.1%) | Oxacillin (antimicrobial plus BTA; quantity not named, MIC implied) ([1]; I-MRSA, +BTA 0.01%)
0.25 µg/mL: Vancomycin (antimicrobial plus BTA; quantity not named, MIC implied) ([1]; EMRSA-16, +BTA 0.1%) | Vancomycin (antimicrobial plus BTA; quantity not named, MIC implied) ([1]; EMRSA-17, +BTA 0.1%)
6 µg/mL: Oxacillin (antimicrobial plus BTA; quantity not named, MIC implied) ([1]; EMRSA-16, +BTA 0.01%) | Cephalexin (antimicrobial plus BTA; quantity not named, MIC implied) ([1]; EMRSA-16, +BTA 0.1%)
2 µg/mL: Cephalexin (antimicrobial plus BTA; quantity not named, MIC implied) ([1]; I-MRSA, +BTA 0.1%) | Oxacillin (antimicrobial plus BTA; quantity not named, MIC implied) ([1]; I-MRSA, +BTA 0.1%)
64 µg/mL: Vancomycin (antimicrobial plus BTA; quantity not named, MIC implied) ([2]; +BTA 0.1%)
8 µg/mL: Oxacillin (antimicrobial plus BTA; quantity not named, MIC implied) ([1]; EMRSA-17, +BTA 0.01%) | Cephalexin (antimicrobial plus BTA; quantity not named, MIC implied) ([1]; EMRSA-17, +BTA 0.1%)

CC(C)(O/N=C(\C(=O)N[C@@H]1C(=O)N2C(C(=O)[O-])=C(C[n+]3ccccc3)CS[C@H]12)c1csc(N)n1)C(=O)O [Ceftazidime, ceftazidime]
>256 µg/mL: MIC of ceftazidime ([3]; CD40 (EMRSA-1)) | MIC of ceftazidime ([3]; E15-97 (EMRSA-15)) | MIC of ceftazidime ([3]; E16-96 (EMRSA-16)) | MIC of ceftazidime ([3]; JF1-32 (EMRSA-1)) | MIC of ceftazidime ([3]; MC01 (EMRSA-1)) | MIC of ceftazidime ([3]; PS3-32 (EMRSA-1)) | MIC of ceftazidime ([3]; SN31 (EMRSA-1)) | MIC of ceftazidime ([3]; ST11 (EMRSA-1)) | MIC of ceftazidime ([3]; SW2-32 (EMRSA-1))
> 256 µg/mL: MIC ([3]; MRSA / NCTC 12493, NCTC 12493, read-out: MIC of ceftazidime) | MIC ([3]; MRSA, DS09 (EMRSA-1), read-out: MIC of ceftazidime)

CC(=O)NCC(=O)O [NAGly, N-acetylglycine]
4 µg/mL: MIC of vancomycin ([6]; L266 (first line), EMRSA-17 (VISA)) | MIC of teicoplanin ([6]; L266, EMRSA-16 (TISA)) | MIC ([6]; MRSA, L265, EMRSA-16 (TISA))
2 µg/mL: MIC of vancomycin ([6]; L266 (second line), EMRSA-17 (VISA))
0.25 µg/mL: MIC of vancomycin ([6]; NCTC 12493)
0.15 µg/mL: MIC ([6]; MRSA / NCTC 12493, NCTC 12493)
